Holding throughout (assay type): cell-based
Test [1] deals with T1, cystic fibrosis transmembrane conductance regulator (CFTR) (Mus musculus, UniProt P26361). As to the kind of experiment: whole-cell patch clamp. Conditions: read-out: % stimulation at 20 μM.
Test [2] addresses T1, cystic fibrosis transmembrane conductance regulator (CFTR).
The target is the same in test [3]. Description: whole-cell patch clamp of native Cl- current in mouse sperm. Conditions: read-out: % inhibition of db-cAMP-stimulated current (at 5 μM).

Three compounds from article PMC4076061 (Journal of cellular physiology, 2013) can be followed below.

As usually defined, the IC50 is the concentration that gives 50% inhibition. A higher IC50 goes with lower potency. The term inhibition denotes the relative decrease from the control value, in per cent.

T1 sequence (P26361 whole entry): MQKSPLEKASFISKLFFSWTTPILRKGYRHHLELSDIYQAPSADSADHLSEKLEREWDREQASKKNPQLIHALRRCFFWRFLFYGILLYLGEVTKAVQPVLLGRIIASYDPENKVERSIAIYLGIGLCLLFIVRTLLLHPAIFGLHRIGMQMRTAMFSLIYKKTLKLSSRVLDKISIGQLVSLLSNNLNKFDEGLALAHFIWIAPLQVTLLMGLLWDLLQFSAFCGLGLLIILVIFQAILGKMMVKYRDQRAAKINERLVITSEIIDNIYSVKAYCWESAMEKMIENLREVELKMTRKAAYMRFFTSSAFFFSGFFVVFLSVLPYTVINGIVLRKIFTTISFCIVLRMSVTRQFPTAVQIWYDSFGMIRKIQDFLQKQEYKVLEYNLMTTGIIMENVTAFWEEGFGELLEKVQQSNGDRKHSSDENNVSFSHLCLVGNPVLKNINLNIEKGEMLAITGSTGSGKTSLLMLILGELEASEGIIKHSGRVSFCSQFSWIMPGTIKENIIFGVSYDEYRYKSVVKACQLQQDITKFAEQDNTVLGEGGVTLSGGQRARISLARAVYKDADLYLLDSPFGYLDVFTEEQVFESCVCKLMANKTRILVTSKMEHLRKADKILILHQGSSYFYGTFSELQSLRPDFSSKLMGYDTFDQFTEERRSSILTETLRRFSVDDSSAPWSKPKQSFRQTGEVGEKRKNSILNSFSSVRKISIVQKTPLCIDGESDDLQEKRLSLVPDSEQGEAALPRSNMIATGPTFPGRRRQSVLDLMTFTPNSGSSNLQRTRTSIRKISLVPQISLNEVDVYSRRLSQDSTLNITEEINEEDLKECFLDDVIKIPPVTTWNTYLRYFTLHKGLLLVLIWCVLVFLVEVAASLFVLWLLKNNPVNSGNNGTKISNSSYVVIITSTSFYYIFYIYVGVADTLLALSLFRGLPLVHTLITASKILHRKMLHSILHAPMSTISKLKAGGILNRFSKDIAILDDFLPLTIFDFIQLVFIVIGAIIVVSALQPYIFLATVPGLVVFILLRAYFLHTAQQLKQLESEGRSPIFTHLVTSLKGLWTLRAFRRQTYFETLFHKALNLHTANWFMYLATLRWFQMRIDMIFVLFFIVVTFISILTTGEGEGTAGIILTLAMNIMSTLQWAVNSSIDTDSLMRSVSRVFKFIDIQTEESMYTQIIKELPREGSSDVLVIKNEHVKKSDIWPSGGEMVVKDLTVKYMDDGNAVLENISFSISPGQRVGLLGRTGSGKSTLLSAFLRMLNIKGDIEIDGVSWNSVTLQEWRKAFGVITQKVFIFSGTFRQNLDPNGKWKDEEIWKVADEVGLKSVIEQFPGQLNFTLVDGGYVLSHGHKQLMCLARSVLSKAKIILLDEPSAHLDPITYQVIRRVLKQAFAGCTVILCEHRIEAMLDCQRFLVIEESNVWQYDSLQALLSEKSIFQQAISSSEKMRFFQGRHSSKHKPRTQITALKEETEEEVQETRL

Regarding `O=c1c(-c2ccc(O)cc2)coc2cc(O)cc(O)c12` [genistein], in test [1], the activation at 20 µM stood at 54 ± 0.5%.

For `O=C(O)c1ccccc1Nc1ccccc1` [DPC], the IC50 in test [2] is ~175 µM.

With `O=C(O)c1ccc(/C=C2\SC(=S)N(c3cccc(C(F)(F)F)c3)C2=O)cc1` [CFTRinh-172, 3-[(3-trifluoromethyl)phenyl]-5-[(4 carboxyphenyl)methylene]-2-thioxo-4thiazolidinone], the inhibition at 5 µM in test [3] came to 60%.
